Calls of active or inactive are those of the source. The calls are words filed in the database; no cut-off is given here.
How the values were obtained:
Cryptococcus neoformans [1] = assay: Antibiofilm activity against Cryptococcus neoformans H99 at 16 ug/ml after 90 mins by XTT assay; assay type: functional, organism-based; settings: var grubii H99
Cryptococcus neoformans [2] = assay: Antifungal activity against Cryptococcus neoformans H99 assessed as induction of gamma-H2AX foci at 2 ug/ml after 48 hrs by Hoechst-33342 staining based fluorescence microscopy; assay type: functional, organism-based; settings: var grubii H99
Cryptococcus neoformans [3] = assay: Induction of up-regulation of PCNA gene expression in Cryptococcus neoformans H99 at 2 ug/ml after 24 hrs by RNA-seq analysis based KEGG pathway enrichment analysis; assay type: functional, organism-based; settings: var grubii H99
Cryptococcus neoformans [4] = assay: Induction of cell cycle arrest in Cryptococcus neoformans H99 assessed as accumulation at G1 phase at 1 to 2 ug/ml after 24 hrs by propidium iodide-staining based FACS analysis (reference value: 44.50%); assay type: functional, var grubii H99
Trichophyton rubrum = assay: Antifungal activity against Trichophyton rubrum TIA after 48 hrs by spectrophotometery; assay type: functional
Candida albicans [5] = assay: Antifungal activity against Candida albicans 0304103 after 48 hrs by spectrophotometery; assay type: functional; settings: Candida albicans, 0304103, 48 h
Cryptococcus neoformans [6] = assay: Inhibition of melanin production in Cryptococcus neoformans H99 at 2.5 ug/ml; assay type: functional, organism-based; settings: var grubii H99
HUVEC = assay: Cytotoxicity against human HUVEC; assay type: cell-based
Nakaseomyces glabratus = assay: Antifungal activity against Candida glabrata 8535 after 48 hrs by spectrophotometery; assay type: functional; settings: Nakaseomyces glabratus, 8535, 48 h
Cryptococcus neoformans [7] = assay: Inhibition of urease production in Cryptococcus neoformans H99 at 10 ug/ml; assay type: functional, organism-based; settings: var grubii H99
[8] = Clearance in ICR mouse liver microsomes at 1 uM measured up to 45 mins in presence of NADPH by LC-MS/MS analysis; assay type: ADME, Microsome; settings: 0.75 h
Cryptococcus neoformans [9] = assay: Induction of cell cycle arrest in Cryptococcus neoformans H99 assessed as accumulation at G2 phase at 1 to 2 ug/ml after 24 hrs by propidium iodide-staining based FACS analysis (reference value: 3.86%); assay type: functional, var grubii H99
Cryptococcus neoformans [10] = assay: Antifungal activity against Cryptococcus neoformans ATCC 34877 after 72 hrs by spectrophotometery; assay type: functional; settings: ATCC 34877, 72 h
Cryptococcus neoformans [11] = assay: Antifungal activity against Cryptococcus neoformans H99 after 48 hrs by growth curve assay; assay type: functional
Cryptococcus neoformans [12] = assay: Antifungal activity against Cryptococcus neoformans H99 after 72 hrs by growth curve assay; assay type: functional; settings: var grubii H99 
Cryptococcus neoformans [13] = assay: Antifungal activity against Cryptococcus neoformans H99 assessed as nuclear pyknosis at 4 ug/ml after 24 hrs by TEM analysis; assay type: functional, organism-based; settings: var grubii H99
[14] = Half life in ICR mouse liver microsomes at 1 uM measured up to 45 mins in presence of NADPH by LC-MS/MS analysis; assay type: ADME, Microsome
[15] = Protein binding in mouse plasma; assay type: ADME, cell-free
Cryptococcus neoformans [16] = assay: Induction of up-regulation of Ycg1 gene expression in Cryptococcus neoformans H99 at 2 ug/ml after 24 hrs by RNA-seq analysis based KEGG pathway enrichment analysis; assay type: functional, organism-based; settings: var grubii H99
Cryptococcus neoformans [17] = assay: Induction of up-regulation of MCM gene expression in Cryptococcus neoformans H99 at 2 ug/ml after 24 hrs by RNA-seq analysis based KEGG pathway enrichment analysis; assay type: functional, organism-based; settings: var grubii H99
Cryptococcus neoformans [18] = assay: Induction of up-regulation of PLK1 gene expression in Cryptococcus neoformans H99 at 2 ug/ml after 24 hrs by RNA-seq analysis based KEGG pathway enrichment analysis; assay type: functional, organism-based; settings: var grubii H99
Cryptococcus neoformans [19] = assay: Induction of up-regulation of Hs17 gene expression in Cryptococcus neoformans H99 at 2 ug/ml after 24 hrs by RNA-seq analysis based KEGG pathway enrichment analysis; assay type: functional, organism-based; settings: var grubii H99
Aspergillus fumigatus = assay: Antifungal activity against Aspergillus fumigatus 7544 after 48 hrs by spectrophotometery; assay type: functional; settings: Aspergillus fumigatus, 7544, 48 h
Cryptococcus neoformans [20] = assay: Antifungal activity against Cryptococcus neoformans H99 assessed as cell wall collapse at 4 ug/ml after 24 hrs by TEM analysis; assay type: functional, organism-based; settings: var grubii H99
[21] = Solubility of the compound; assay type: physicochemical
Cryptococcus neoformans [22] = assay: Antifungal activity against Cryptococcus neoformans H99 assessed as up-regulation of Cdc25C expression after 24 hrs by Western blot analysis; assay type: functional, organism-based; settings: var grubii H99
Cryptococcus neoformans [23] = assay: Antifungal activity against Cryptococcus neoformans H99 assessed as formation of abnormally shaped cells at 4 ug/ml after 24 hrs by TEM analysis; assay type: functional, organism-based; settings: var grubii H99
Cryptococcus gattii = assay: Antifungal activity against Cryptococcus gattii ATCC 14116 after 72 hrs by spectrophotometery; settings: ATCC 14116, 72 h
Nannizzia gypsea = assay: Antifungal activity against Microsporum gypseum MZC after 48 hrs by spectrophotometery; assay type: functional
Cryptococcus neoformans [24] = assay: Induction of up-regulation of PNAC gene expression in Cryptococcus neoformans H99 at 2 ug/ml after 24 hrs by RNA-seq analysis based KEGG pathway enrichment analysis; assay type: functional, organism-based; settings: var grubii H99
Candida parapsilosis = assay: Antifungal activity against Candida parapsilosis 5008 after 48 hrs by spectrophotometery; assay type: functional; settings: Lodderomyces parapsilosis, 5008, 48 h
Cryptococcus neoformans [25] = assay: Antifungal activity against Cryptococcus neoformans H99 assessed as inhibition of microbial growth at 8 ug/ml after 12 to 48 hrs by growth curve assay; assay type: functional; settings: var grubii H99, read-out: GI
Cryptococcus neoformans [26] = assay: Induction of up-regulation of DNA polymerase alpha2 gene expression in Cryptococcus neoformans H99 at 2 ug/ml after 24 hrs by RNA-seq analysis based KEGG pathway enrichment analysis; assay type: functional, organism-based; settings: var grubii H99
Cryptococcus neoformans [27] = assay: Antifungal activity against Cryptococcus neoformans H99 assessed as up-regulation of CDK1 expression after 24 hrs by Western blot analysis; assay type: functional, organism-based; settings: var grubii H99
Cryptococcus neoformans [28] = assay: Induction of up-regulation of Mps1 gene expression in Cryptococcus neoformans H99 at 2 ug/ml after 24 hrs by RNA-seq analysis based KEGG pathway enrichment analysis; assay type: functional, organism-based; settings: var grubii H99
Cryptococcus neoformans [29] = assay: Induction of cell cycle arrest in Cryptococcus neoformans H99 assessed as accumulation at S phase at 1 to 2 ug/ml after 24 hrs by propidium iodide-staining based FACS analysis (reference value: 51.64%); assay type: functional, var grubii H99
Cryptococcus neoformans [30] = assay: Induction of up-regulation of Mob1 gene expression in Cryptococcus neoformans H99 at 2 ug/ml after 24 hrs by RNA-seq analysis based KEGG pathway enrichment analysis; assay type: functional, organism-based; settings: var grubii H99
Cryptococcus neoformans [31] = assay: Induction of up-regulation of Lig1 gene expression in Cryptococcus neoformans H99 at 2 ug/ml after 24 hrs by RNA-seq analysis based KEGG pathway enrichment analysis; assay type: functional, organism-based; settings: var grubii H99
Cryptococcus neoformans [32] = assay: Antifungal activity against Cryptococcus neoformans H99 infected in ICR mouse assessed as reduction in brain fungal load at 20 mg/kg, po administered daily for 5 days; assay type: functional, organism-based; settings: var grubii H99
[33] = Effective permeability of the compound after 12 hrs by PAMPA; assay type: ADME; settings: read-out: Peff
Candida albicans [34] = assay: Antifungal activity against Candida albicans 7781 after 48 hrs by spectrophotometery; assay type: functional; settings: Candida albicans, 7781, 48 h
Cryptococcus neoformans [35] = assay: Induction of up-regulation of ORC gene expression in Cryptococcus neoformans H99 at 2 ug/ml after 24 hrs by RNA-seq analysis based KEGG pathway enrichment analysis; assay type: functional, organism-based; settings: var grubii H99
Cryptococcus neoformans [36] = assay: Antibiofilm activity against Cryptococcus neoformans H99 assessed as inhibition of cellular surface hydrophobicity at 5 ug/ml incubated for 24 hrs by water-hydrocarbon two-phase assay; assay type: functional, organism-based; settings: var grubii H99
Cryptococcus neoformans [37] = assay: Antifungal activity against Cryptococcus neoformans H99 infected in ICR mouse assessed as reduction in brain fungal load at 10 mg/kg, ip administered once daily; assay type: functional, organism-based; settings: var grubii H99
Cryptococcus neoformans [38] = assay: Antifungal activity against Cryptococcus neoformans H99 assessed as up-regulation of cyclin B1 expression after 24 hrs by Western blot analysis; assay type: functional, organism-based; settings: var grubii H99
Cryptococcus neoformans [39] = assay: Induction of up-regulation of APC/C gene expression in Cryptococcus neoformans H99 at 2 ug/ml after 24 hrs by RNA-seq analysis based KEGG pathway enrichment analysis; assay type: functional, organism-based; settings: var grubii H99

MIC80 (Trichophyton rubrum): 4 µg/mL
MIC80 (Candida albicans [5]): 2 µg/mL
MIC80 (Nakaseomyces glabratus): 1 µg/mL
scaled CLint [8]: 78 mL/min/kg
MIC80 (Cryptococcus neoformans [10]): 0.5 µg/mL
MIC80 (Cryptococcus neoformans [11]; var grubii H99 ): 0.25 µg/mL
MIC80 (Cryptococcus neoformans [12]): 0.5 µg/mL
half-life at 1 µM [14]: 1.17 h
PPB [15]: Active
MIC80 (Aspergillus fumigatus): 16 µg/mL
solubility [21]: 54.6 µg/mL
MIC80 (Cryptococcus gattii): 1 µg/mL
MIC80 (Nannizzia gypsea): 8 µg/mL
MIC80 (Candida parapsilosis): 2 µg/mL
Activity (Cryptococcus neoformans [26]): Active
Papp at 12 h [33]: 1.8 ×10⁻⁶ cm/s
MIC80 (Candida albicans [34]): 4 µg/mL
Structure (SMILES): Clc1ccc(OCCCn2c3c(c4cc(Cl)ccc42)CCNC3)cc1.O=C(O)C(F)(F)F
Activity (Cryptococcus neoformans [1]): Active
Activity (Cryptococcus neoformans [2]): Active
Activity (Cryptococcus neoformans [3]): Active
Activity (Cryptococcus neoformans [4]): 36.45%
inhibition (Cryptococcus neoformans [6]): Active
Activity (HUVEC): Non-Toxic
inhibition (Cryptococcus neoformans [7]): inactive
Activity (Cryptococcus neoformans [9]): 10.34%
Activity (Cryptococcus neoformans [11]; var grubii H99): Dose-dependent effect
Activity (Cryptococcus neoformans [13]): Active
Activity (Cryptococcus neoformans [16]): Active
Activity (Cryptococcus neoformans [17]): Active
Activity (Cryptococcus neoformans [18]): Active
Activity (Cryptococcus neoformans [19]): Active
Activity (Cryptococcus neoformans [20]): Active
Activity (Cryptococcus neoformans [22]): Dose-dependent effect
Activity (Cryptococcus neoformans [23]): Active
Activity (Cryptococcus neoformans [24]): Active
inhibition of growth at 8 µg/mL (Cryptococcus neoformans [25]): 100%
Activity (Cryptococcus neoformans [27]): Dose-dependent effect
Activity (Cryptococcus neoformans [28]): Active
Activity (Cryptococcus neoformans [29]): 53.21%
Activity (Cryptococcus neoformans [30]): Active
Activity (Cryptococcus neoformans [31]): Active
Activity (Cryptococcus neoformans [32]): Active
Activity (Cryptococcus neoformans [35]): Active
Activity (Cryptococcus neoformans [36]): Active
Activity (Cryptococcus neoformans [37]): Active
Activity (Cryptococcus neoformans [38]): Dose-dependent effect
Activity (Cryptococcus neoformans [39]): Active

Source: ChEMBL document CHEMBL4400538, “Discovery of Carboline Derivatives as Potent Antifungal Agents for the Treatment of Cryptococcal Meningitis” (J Med Chem, 2019)
